Where two headings read alike, the source gives them in different places. A value given as a limit tells only on which side of the number the result lay.

One series concerns DC-3F/ADX. Briefly: Tumor cell growth inhibition in vitro. Type of series: cell-based, hamster. Particulars: for IC50: DC-3F/ADX; for cross-resistance (fold of resistance vs parent cell line): DC-3F/ADX vs DC-3F. How it is done: The fresh medium containing each drug was replenished every 7-14 days. […] In each case ,the drug-exposed cells were resuspended in fresh media for a minimum of 4 days before the experiments for the cell-growth inhibition was carried out.
The cells were cultured at an initial density of 2-5×10^4 cells per ml. They were maintained in a 5% CO2-humidified atmosphere at 37° C. in RPMI mediun 1640 (GIBCO/BRL) containing penicillin (100 units/ml), streptomycin (100 μg/ml) (GIBCO/BRL), and 5% heat-inactivated fetal bovine serum. For solid tumor cells growing in a monolayer (such as MCF-7/Adr), cytotoxicitiy of the drug was determined in 96-well microtiter plates by using the sulforhodamine B method as described by Skehan et al (23) for measuring the cellular protein content. For cells that were grown in suspension (such as CCRF-CEM and its sublines), cytotoxicitiy was measured by using the 2,-3-bis(2-methoxy-4-nitro-5-sulfophenyl)-5carboxanilide)-2H terazodium hydroxide (XTT)-microculture tetrazonium method (24) in duplicate in 96-well microtiter plates. For both methods, the absorbance of each well was measured with a microplate reader (EL-340, Bio-Tek, Burlington, Vt.). Each run entailed six or seven concentrations of the tested drugs. Dose-effect relationship data were analyzed with the median-effect plot (25) by using a previously described computer program (26).

Series [1] has as its system Human lung carcinoma A549 cells. Particulars: A549 cells exposed to IC50-IC90: VBL 14.3 months, paclitaxel and adriamycin 21.3 months, dEpoB 21.4 months. From the text:
Repeated exposure of human lung carcinoma A549 cells to sublethal concentrations of antitumor agents may lead to the development of drug resistance.
Every several weeks, cells were harvested for the dose-effect analysis to determine their folds of resistance (using SRB protein staining assay) based on comparing the IC50 value with the IC50 value of the untreated parent cells. Trypsinized/washed cells were used for propagating the cell lineage.

The nature of series [2]: Toxicity in beagle dogs, 10-min i.v. infusion. The series is classed as in vivo, beagle dog. How it is done:
dEpoB at doses of 2, 6, 12 and 20 mg/kg, were given to male beagle dogs (11.2-14 kg) via i.v. infusion. The infusion volume was 1 ml/kg for 10 min using the Harvard PHD2000 pump (Harvard Apparatus). dEpoB was formulated in Cremophor 3%, ethanol 3%, propyleneglycol 40% and 5% glucose 54%. The animal was pretreated at −30 min with Benadryl 5 mg/kg, i.v.; cimetidine 5 mg/kg i.m.; and dexamethasone 1 mg/kg, i.e. to minimize allergic reactions due to Cremophor administration.
At 12 mg/kg. […] The body-weight slowly recovered in 2-3 weeks. […] There was a gross abnormality (reddish discoloration) of the intestinal mucosa from duodenum to the ileum. The small intestines contained blood tinged mucinous materials. […] Necrosis of intestinal mucosal epithelium with crypt cells most severely affected at this lethal dose.

Series [3] deals with SK-OV-3 ovary adenocarcinoma xenograft. The experiment in a line: Human tumor xenograft in nude mice. Type of series: in vivo. Summed up: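 Male athymic nu/nu mice bearing s.c. flank tumours from 5×10^6 cells or 30-50 mg tissue; dosing began at 35-200 mm^3 as 6 hr tail-vein i.v. infusion every other day ×5 unless otherwise indicated. Caliper tumour volume, body weight and lethality recorded every other day; 3-5 mice per group.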

The subject of the next series is B16 Melanoma. Type of series: in vivo, murine. Particulars: mouse, in vivo.
A further series has as its system tubulin. The experiment in a line: Tubulin-binding / tubulin polymerization assay. The series is classed as biochemical.
Series [4] in a line: Stability in plasma in vitro (HPLC). Type of series: in vitro ADME, dog. The settings on record: 5 μg/mL, 37 degree. How it is done: Stability of dEpoF in animal plasmas. A HPLC method is set up using a NovaPak C 18, 3.9×300 mm column with a mobile phase of 50% acetonitrile in 50 mM potassium dihydrogen phosphate with 0.01% triethylamine at a flow rate of 0.8 ml/min. dEpoF is monitored at a wavelength of 260 nm and has a retention time of about 10 min. The plasma stability is performed with mouse plasma and dog plasma purchased from Pel-Freeze and human plasma from the blood center in MSKCC. A small amount of dEpoF was dissolved in 50% methanol/water at a concentration of 500 μg/mL. An aliquot of 20 μL is then spiked to 2 mL of plasma to a final plasma concentration of 5 μg/mL. The plasma samples were kept at 37 degree. At the time point, 200 μL of the plasma was removed and added to 400 μL of methanol to precipitate the plasma protein. Twenty μL of the supernatant was analyzed by HPLC without further modification. dEpoF disappears rapidly with half life about one hour in the commercial frozen mouse plasma alone, but stable in dog and human plasma.

[5] abbreviates: SK-OV-3, dEpoB 30 mg/kg, Taxol 15 mg/kg, Q2Dx6, 6-hr i.v. infusion.

On to `CC(=O)O[C@H]1C(=O)[C@@]2(C)[C@H]([C@H](OC(=O)c3ccccc3)[C@]3(O)C[C@H](OC(=O)[C@H](O)[C@@H](NC(=O)c4ccccc4)c4ccccc4)C(C)=C1C3(C)C)[C@]1(OC(C)=O)CO[C@@H]1C[C@@H]2O` [Taxol, paclitaxel, reference compound], for which the results for the IC50 with DC-3F/ADX and in the series with DC-3F/ADX (listed as Paclitaxel) were 0.583 µM and 20.2 µM, respectively.
Consider `C/C(=C\c1csc(C)n1)C1C[C@@H]2O[C@]2(C)CCC[C@H](C)[C@H](O)[C@@H](C)C(=O)C(C)(C)C(O)CC(=O)N1` (stereo partly drawn) [aza-EpoB, aza-epothilone B], for which the figures for the “cross-resistance (fold of resistance vs parent cell line)” value with DC-3F/ADX and with DC-3F/ADX (listed as 15-aza-EpoB) were 33.1 x and 274 x, respectively. The IC50 is 2.38 µM in the series with DC-3F/ADX (listed as 15-aza-EpoB, read-out: IC50) and 0.288 µM in the series on DC-3F/ADX (read-out: IC50).
`C/C1=C/C[C@@H](/C(C)=C/c2csc(C)n2)OC(=O)C[C@H](O)C(C)(C)C(=O)[C@H](C)[C@@H](O)[C@@H](C)CCC1` [dEpoB, 12,13-desoxyepothilone B]: in series [1], the “fold resistance developed to the drug after repeated exposure” value was determined as 21 fold. Besides, in series [2] (12 mg/kg), the clinical signs result is given as “moderate diarrhea (without blood)”, the “decrease in white blood cell (WBC) counts” value was 13%, the “drop in body-weight on day 3” value is 1.3 kg and the “histopathology of 28 organs or tissues” value is given as “No significant histopathologic lesions”. The “platelet counts, ALT, AST” value in series [2] (12 mg/kg) is reported as “No significant changes”. Also, in series [2] (20 mg/kg), the “WBC on day 3” value turned out to be 0.6 k/μl; the “body-weight loss on day 2” value stood at 0.9 kg; the “body-weight loss on day 3” value came out at 3.6 kg; the “increase in ALT and AST by day 4” value is listed as 3-6 fold. Besides, the lethality result in series [2] (20 mg/kg) was “expired on day 4”. The “clinical signs on day 2” value in series [2] (20 mg/kg i.v.) was “severe bloody diarrhea and dehydration”. In series [2] (2 or 6 mg/kg (40 and 120 mg/m^2)), the toxicity entry is recorded as “No significant toxicity”. For the same compound, in series [3] (SK-OV-3, i.v. infusion), the “Therapeutic Effect Rank Order” value is “Taxol>>dEpoB”. In addition, the “Therapeutic Effect Rank Order” value in series [3] (SK-OV-3, i.v. or i.p., ref 19 (Table 6)) was “dEpoB≈Taxol”. The “Therapeutic Effects dEpoB vs Taxol” value in series [3] (SK-OV-3, dEpoB 30 mg/kg, Taxol 15 mg/kg, Q2Dx6) is recorded as “<<”. In series [3] (setting [5]), the “Lowest Average Tumor Size (T/C)” value worked out at 0.17 and the “Tumor Disappearance” value is 0/3. Further, the “Therapeutic Effect Rank Order” value in the series with B16 Melanoma was “dEpoB>Taxol>>EpoB”.
For the compound `C/C1=C/C[C@@H](/C(C)=C/c2csc(CO)n2)OC(=O)C[C@H](O)C(C)(C)C(=O)[C@H](C)[C@@H](O)[C@@H](C)CCC1` [dEpoF, 12,13-Desoxyepothilone F], in the series on tubulin, the “tubulin-binding activity retained relative to dEpoB” value was found to be 90%. The “stability in dog plasma” value in series [4] is “stable”.
